Measurements published in the NIST ThermoML archive (doi:10.1016/j.jct.2015.06.025).

Legend:
[1] = mn = molality of the nth substance listed, in mol/kg; conditions: 101.3 kPa, Liquid; for viscosity: Capillary tube (Ostwald / Ubbelohde) method; for mass density: Pycnometric method
[2] = 101.3 kPa, Liquid, Capillary tube (Ostwald / Ubbelohde) method

O=C[C@H](O)[C@@H](O)[C@H](O)[C@H](O)CO [D-glucose] + O
[1], m1 = 0.06
Conditions	mass density [kg/m3]	viscosity [mPa·s]
288.15 K	1003.25	1.174
298.15 K	1001.17	0.9111
308.15 K	998.15	0.7299

[Cl-].[Na+] [sodium chloride] + O
[1], m1 = 0.06
Conditions	mass density [kg/m3]	viscosity [mPa·s]
288.15 K	1001.64	1.146
298.15 K	999.52	0.896
308.15 K	–	0.7233

CCCC(CCC)C(=O)[O-].[Na+] [sodium valproate] + O
[1]
Conditions	mass density, 288.15 K [kg/m3]	mass density, 298.15 K [kg/m3]	mass density, 308.15 K [kg/m3]	viscosity, 288.15 K [mPa·s]	viscosity, 298.15 K [mPa·s]	viscosity, 308.15 K [mPa·s]
m1 = 0.01	–	997.43	994.42	–	0.8988	0.7252
m1 = 0.0102	999.51	–	–	1.153	–	–
m1 = 0.0191	999.84	997.79	–	1.162	0.9064	–
m1 = 0.02	–	–	994.78	–	–	0.7296
m1 = 0.0245	1000.06	997.98	–	1.169	0.9122	–
m1 = 0.0303	–	–	995.13	–	–	0.7345
m1 = 0.0305	1000.3	998.22	–	1.177	0.9166	–
m1 = 0.0401	1000.66	998.56	–	1.187	0.9238	–
m1 = 0.0405	–	–	995.53	–	–	0.7397
m1 = 0.0453	1000.87	998.75	–	1.195	0.9268	–
m1 = 0.0497	–	–	995.89	–	–	0.7444
m1 = 0.0501	1001.04	998.91	–	1.201	0.9318	–
m1 = 0.0605	–	–	996.24	–	–	0.7499
m1 = 0.0608	1001.43	999.3	–	1.213	0.9391	–
m1 = 0.0706	1001.79	999.64	–	1.225	0.9476	–
m1 = 0.0708	–	–	996.63	–	–	0.7552
m1 = 0.08	1002.15	999.96	–	1.238	0.9558	–
m1 = 0.0844	–	–	997.07	–	–	0.7617
m1 = 0.0902	–	–	997.29	–	–	0.7645
m1 = 0.0924	1002.59	1000.39	–	1.252	0.9653	–
m1 = 0.0959	–	–	997.48	–	–	0.7686
m1 = 0.101	–	–	997.66	–	–	0.7716
m1 = 0.1021	1002.93	1000.72	–	1.262	0.9733	–
m1 = 0.1154	–	–	998.16	–	–	0.7769

O [water]
[2]
Conditions	viscosity [mPa·s]
288.15 K	1.138
298.15 K	0.8903
308.15 K	0.7195

O [water] + CCCC(CCC)C(=O)[O-].[Na+]
[1], m2 = 0
Conditions	viscosity [mPa·s]
288.15 K	1.138
298.15 K	0.8903
308.15 K	0.7195
